Molecules are shown by their SMILES.

3 compounds from patent publication US9840532B2, “5′-substituted nucleoside compounds” (Eli Lilly and Company, priority 2015, dated 2017) can be followed below.

The test system of the test is MDM4 and SmD1-me2S. In words: Mouse A375 Tumor Xenograft MDM4 and SmD1-me2S Western Blot Assay. Conditions: A-375, PO given QD or BID, tumors 4 hr after last dose, 4 days of dosing, read-out: dose achieving 50% effect (ED50). It counts as in vivo. Here is the method:
Grow A375 cells in medium (DMEM high glucose/10% Hi FBS) at 37° C. in an incubator (5% CO2) for 18-24 hr. Mix the cells with MATRIGEL® (1:1) and implant the cells (5×10^6/animal) subcutaneously into the rear flank of the mice (female nude mice, Harlan). The implanted tumor cells grow as solid tumors. Measure the tumor volume and body weight twice a week with a caliper. After tumor volume reaches approximately 200-250 mm^3 (about 20 days after implant), randomize the animals, and group them into compound treatment groups. Administer the test compounds (formulated in SWFI with 1% HEC/0.25% TWEEN® 80/0.05% Antifoam) by oral gavage. Test compound doses are in the range of 3 to 100 mg/kg. Sacrifice mice 4 hr after the last dose (4 days of dosing).
Mouse A375 Tumor Xenograft MDM4 and SmD1-me2S Western Blot Assay
For western blotting, homogenize the tumor tissues as performed above in 500 μL of kit XY lysis buffer including protease inhibitor cocktail complete Mini (Roche, cat. #: 11 836 170 001) [this cocktail contains […] Trypsin-Chymotrypsin Inhibitor (Sigma cat. # T9777); 10 μg/mL TPCK (Sigma cat. # T4376); 10 μg/mL Aprotinin (Sigma cat. # A1153); 60 mM Beta-Glycerophosphate disodium salt hydrate (Sigma cat. # G9891); 1% TRITON™ X-100 (Sigma cat. # T9284); 25 mM Tris pH ˜7.5 (INVITROGEN™ cat. #15567-027); 2.5 mM sodium pyrophosphate dibasic (Fluka cat. #71501); 300 mM […] (Mallinckrodt cat. #7581); 2 mM TAME (Sigma cat. # T4626); 15 mM pNPP (pNPP disodium salt hexahydrate, Sigma cat. #P4744); 5 mM benzamidine hydrochloride hydrate (Sigma cat. #B6506); 10 mM sodium fluoride (Sigma cat. #S-7920); 1 mM sodium metavanadate anhydrous (Sigma cat. #59088); […]. 1 mM DTT (Sigma cat. # D9779); 15 mM EDTA pH ˜8.0 (INVITROGEN™ cat. #15575020); 5 mM EGTA pH ˜8.0 (Sigma cat. #E3889); […] (Fisher/Axxora cat. # A350012m001); 0.25 mM Pefa Bloc (Sigma cat. #76307). Spin the protein lysates down at 8,000 rpm for 10 min and transfer supernatants to 1.5 mL tubes for sonication (amplitude 25% yield) for 15 seconds. […]
(In western blotting, separated proteins are transferred to a membrane and probed.)
As usually defined, the ED50 is the midpoint of the dose-response relation. For `Nc1ncnc2c1ccn2[C@@H]1O[C@H]([C@H](O)c2ccccc2)[C@@H](O)[C@H]1O` [Example 2, (2R,3R,4S,5R)-2-(4-Aminopyrrolo[2,3-d]pyrimidin-7-yl)-5[(R)-hydroxy(phenyl)methyl]tetrahydrofuran-3,4-diol], the ED50 was at most 30 mg/kg.
Turning to `Nc1ncnc2c1ccn2[C@@H]1O[C@H]([C@H](O)c2ccc(Cl)cc2)[C@@H](O)[C@H]1O` [Example 1, (2R,3R,4S,5R)-2-(4-Aminopyrrolo[2,3-d]pyrimidin-7-yl)-5-[(R)-(4-chlorophenyl)-hydroxy-methyl]tetrahydrofuran-3,4-diol], the median effective dose (ED50) was at most 30 mg/kg.
With `C[C@@](O)(c1ccc(Cl)cc1)[C@H]1O[C@@H](n2ccc3c(N)ncnc32)[C@H](O)[C@@H]1O` [Example 3, (2R,3R,4S,5S)-2-(4-Aminopyrrolo[2,3-d]pyrimidin-7-yl)-5-[(1R)-1-(4-chlorophenyl)-1-hydroxy-ethyl]tetrahydrofuran-3,4-diol], the 50% effective dose (ED50) was at most 30 mg/kg.
